Reference: PubChem BioAssay (NCI)
“And” between values parts separate entries of the source, which are not always exact repeats. Equal entries are not always repeated.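 Each compound was tested at five concentrations against cells in 96-well plates for 48 hours. GI50 = concentration required for 50% inhibition of growth. TGI is the concentration that stops growth completely.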

How the values were obtained:
Assay in all cases: NCI tumour cell line growth inhibition, 48 h
UO-31 renal = tested on: UO-31 renal
NCI-H23 lung = tested on: NCI-H23 lung
KM12 colon = tested on: KM12 colon
TK-10 renal = tested on: TK-10 renal
SK-MEL-28 melanoma = tested on: SK-MEL-28 melanoma
SF-268 CNS = tested on: SF-268 CNS
UACC-62 melanoma = tested on: UACC-62 melanoma
SK-MEL-5 melanoma = tested on: SK-MEL-5 melanoma
SK-OV-3 ovarian = tested on: SK-OV-3 ovarian
OVCAR-4 ovarian = tested on: OVCAR-4 ovarian

Row | Compound | TGI (UO-31 renal) [µM] | TGI (NCI-H23 lung) [µM] | TGI (KM12 colon) [µM] | TGI (TK-10 renal) [µM] | TGI (SK-MEL-28 melanoma) [µM] | TGI (SF-268 CNS) [µM] | TGI (UACC-62 melanoma) [µM] | TGI (SK-MEL-5 melanoma) [µM] | TGI (SK-OV-3 ovarian) [µM] | TGI (OVCAR-4 ovarian) [µM] | GI50 (UO-31 renal) [µM] | GI50 (NCI-H23 lung) [µM] | GI50 (KM12 colon) | GI50 (TK-10 renal) [µM] | GI50 (SK-MEL-28 melanoma) | GI50 (SF-268 CNS) [µM] | GI50 (UACC-62 melanoma) [µM] | GI50 (SK-MEL-5 melanoma) | GI50 (SK-OV-3 ovarian) [µM] | GI50 (OVCAR-4 ovarian)
1 | Cc1ccc(NC(=O)C(=O)C2C(=O)NC(=O)NC2=O)c(C)c1 | > 100 | > 100 | > 100 | > 100 | > 100 | > 100 | > 100 | > 100 | > 100 | > 100 |  |  |  |  |  |  |  |  |  | 
2 | CCOc1ccc(Nc2ccnc3cc(Cl)ccc23)cc1 | > 100 | > 100 | > 100 | > 100 | > 100 | > 100 | > 100 | > 100 | > 100 | > 100 | > 100 | > 100 | 84.1 µM | > 100 | > 100 µM | 57 | > 100 | > 100 µM | > 100 | 78.3 µM
3 | CCCCCCCCCCCCCCCCCC1=NC(C)(C)CN1C(C)(C)CO | 3.43 | 2.99 | 2.64 | 3.34 | 3.28 | 3.02 | 3.46 | 3.07 | 3.51 | 4.92 | 1.42 | 1.52 | 1.34 µM | 1.83 | 1.81 µM | 1.54 | 1.79 | 1.68 µM | 1.84 | 2.05 µM
4 | CC1=NC(C)=C(/C(C)=N/NC(=O)c2ccccc2O)C(C)/C1=C(/C)NNC(=O)c1ccccc1O (stereo not given) | 43.1 | 26.9 | > 100 | 98.8 | > 100 | > 100 | 26.3 | 38.9 | > 100 | 48.4 |  |  |  |  |  |  |  |  |  | 
5 | CCOC(=O)NC(=O)c1cn(C2CCCCC2)c(=O)n(C)c1=O | > 100 | > 100 | > 100 | > 100 | > 100 | > 100 | > 100 | > 100 | > 100 | > 100 |  |  |  |  |  |  |  |  |  | 
6 | O=C1/C(=C/c2ccc(Cl)cc2)N=C(c2ccccc2)N1c1cc(C(F)(F)F)ccc1Cl | > 100 | > 100 | 84 | > 100 | > 100 | > 100 | 44.9 | 29.5 | > 100 | 89.7 | 19.4 | 34.4 | 21.9 µM | 31.7 | 39.1 µM | 28.8 | 14 | 16 µM | 35.7 | 20.2 µM
7 | COc1ccc2cc(C(=O)N3CCC([C@@H](C)C(=O)NCc4ccc5c(c4)OCO5)CC3)[nH]c2c1 | > 100 | > 100 | > 100 | > 100 | > 100 | > 100 | > 100 | > 100 | > 100 | > 100 | > 100 | > 100 | > 100 µM | > 100 | > 100 µM | 77.3 | 28.1 | > 100 µM | > 100 | > 100 µM
8 | COc1nc2c(c(=O)n1C)CN(c1ccccc1)C(=O)CN2C | > 100 | > 100 | > 100 | > 100 | > 100 | > 100 | > 100 | > 100 | > 100 | > 100 | 5.73 | 95.1 | 27.3 µM | 51.1 | 70 µM | 36.8 | 45.8 | 26.9 µM | > 100 | 71.2 µM
9 | CC(C)(C)c1cc[n+](C[n+]2ccc(C(C)(C)C)cc2)cc1 | > 100 | > 100 | > 100 | > 100 | > 100 | > 100 | > 100 | > 100 | > 100 | > 100 |  |  |  |  |  |  |  |  |  | 
10 | COc1ccc2c(c1)C(=O)/C(=C/c1ccc(O)cc1)O2 | 9.39 | 34.4 | 22.8 | 31 | 29.6 | 41.1 | 30.5 | 30.5 | > 100 | 12.7 | 4.73 | 13.9 | 8.78 µM | 15 | 14.3 µM | 14.8 | 14.7 | 15.4 µM | 52.7 | 5.67 µM
11 | C[C@]1(c2nc3c(C(N)=O)cccc3[nH]2)CCCN1 | > 100 | > 100 | > 100 | > 100 | > 100 | > 100 | > 100 | > 100 | > 100 | > 100 | > 92.8 | > 100 | 61.9 µM and > 86.2 µM | > 100 | 75.1 µM and > 100 µM | > 100 | > 100 | > 76.4 µM and 98.5 µM | > 100 | 66.1 µM and > 100 µM
12 | CN1CCN(c2ccncc2S(=O)(=O)N2CCN(C)CC2)CC1 | > 100 | > 100 | > 100 | > 100 | > 100 | > 100 | > 100 | > 100 | > 100 | > 100 |  |  |  |  |  |  |  |  |  | 
13 | CCCC[C@H](CCc1ccccc1)N(C(=O)OC)N1CCC[C@H]1COC | 35.4 | 32 | 35.9 | 79.3 | 38 | 43 | 30.9 | 32.9 | 60.2 | 39.9 |  |  |  |  |  |  |  |  |  | 
